Consider 13 compounds from patent US4440784A, “Anti-inflammatory, analgesic, and antipyretic pharmaceutical composition” (Kanegafuchi Chemical Industry Company, Ltd., priority 1981, dated 1984).

In data set [1] the test system is acetic acid-induced writhing in mice. The data set can be described thus: acetic acid-induced writhing in mice (analgesic activity). It counts as in vivo, male ddY strain mice. The conditions noted are these: po. The procedure:
An analgesic activity was evaluated by the method of acetic acid-induced writhing in mice [R. Koster et al., Federation Proc., 18, 412 (1959)]. Ten male ddY strain mice weighing 20~25 g were used in each group. Test compounds suspended in 2.5% acacia were administered p.o. to the mice. One hour later, the mice were injected i.p. with 0.6% acetic acid in a volume of 0.1 ml/10 g body weight. The number of writhes in each of mice was counted for 20 minutes after the injection of the acetic acid. Percent inhibition was calculated by the following equation. [formula]

Data set [2] relates to carrageenan-induced paw edema in rats. The data set can be described thus: carrageenan-induced paw edema in rats (acute anti-inflammatory activity). It counts as in vivo, male Wistar strain rats. Particulars: po; for inhibition in vivo at 50 mg/kg / inhibition in vivo at 100 mg/kg: rat, p.o.; for inhibition in vivo at 5 mg/kg: Rattus norvegicus. As for the experimental part: (1) An acute anti-inflammatory activity was evaluated by the method of carrageenan-induced paw edema in rats [C. A. Winter et al., Proc. Soc. […] Six male Wistar strain rats weighing 150~180 g were used in each group. […] The volume of each paw edema was measured 3 and 5 hours after the injection of carrageenan. Percent edema inhibition was calculated by the following equation. [formula]

Data set [3] can be described thus: toxicity test in mice (LD50). Particulars: in vivo, po; mouse, 14 days observation. The procedure: Female ICR strain mice weighing 20~25 g in groups of six each were used for toxicity tests. Test compounds suspended in 2.5% acacia were administered p.o. to the mice. The animals were observed daily for 14 days after the administration. The LD50 values were estimated from mortality (No. of dead mice/No. of mice used).

The test system of data set [4] is yeast-induced fever in rats. The data set can be described thus: yeast-induced fever in rats (antipyretic activity). Particulars: po; for inhibition in vivo at 100 mg/kg / inhibition in vivo at 50 mg/kg: rat, p.o.; for inhibition in vivo at 5 mg/kg: Rattus norvegicus. It counts as in vivo, male Wistar strain rats. As for the experimental part: Five male Wistar strain rats weighing 150~180 g were used in each group. A 20% Baker's yeast suspension in 0.9% NaCl was injected s.c. into the dorsal region of rats in a volume of 1 ml/100 g body weight. […] The rectal temperature was determined with a thermometer, 1, 3 and 5 hours after the administration of test compounds. Percent inhibition was calculated by the following equation. [formula]

Data set [5] concerns adjuvant-induced arthritis in rats. The data set can be described thus: adjuvant-induced arthritis in rats (chronic anti-inflammatory activity). It counts as in vivo, male Sprague-Dawley strain rats. The conditions noted are these: rat, p.o. once daily. As for the experimental part:
(3) A chronic anti-inflammatory activity was evaluated by the method of adjuvant-induced arthritis in rats [D. T. Walz et al., J. Pharmacol. and Exp. Ther., 178, 223 (1971)]. Eight male Sprague-Dawley strain rats weighing 190~230 g were used in each group. Into the left hind paw of rats was injected i.d. 0.5 mg of Mycobacterium butyricum suspended in 0.05 ml of paraffin oil. Test compounds suspended in 2.5% acacia were administered p.o. once daily for 21 days, starting on the day of the injection of an adjuvant (day 0). Paw volumes of adjuvant-injected and uninjected feet were measured on day 14 and on day 21. Percent inhibition was calculated by the following equation. [formula]

Data set [6] relates to paper disk-induced granuloma in rats. The data set can be described thus: paper disk-induced granuloma in rats (sub-chronic anti-inflammatory activity). It counts as in vivo, male Wistar strain rats. The conditions noted are these: rat, p.o. once daily for 7 days. As for the experimental part: Six male Wistar strain rats weighing 150~180 g were used in each group. Each paper disk (29±1 mg) was implanted s.c. into the bilateral area of the scapula of rats under anesthesia with amobarbital sodium. […] The rats were killed on day 7, at which time the paper disks with surrounding granulomatous tissues were removed and dried to constant weight overnight, and weighed. Percent inhibition was calculated by the following equation. [formula]

Setting [7] is: Mus musculus, read-out: Inhibition (writhing).
The mark [8] stands for this setting: mouse, p.o., 100 mg/kg, 1 hour before acetic acid i.p., read-out: Inhibition (writhing).
Where [9] appears, read: 3 hours after carrageenan, read-out: Percent edema inhibition, 3 hours.
Where [10] appears, read: 5 hours after carrageenan, read-out: Percent edema inhibition, 5 hours.
Where [11] appears, read: 1 hour after administration, read-out: Inhibition (fever), 1 hour.
Setting [12] is: 3 hours after administration, read-out: Inhibition (fever), 3 hours.
Where [13] appears, read: 5 hours after administration, read-out: Inhibition (fever), 5 hours.

Like-named read-outs stand apart in the source and are kept apart here. Bounds are passed on as bounds.

`CC(=O)Oc1ccccc1C(=O)O` [Aspirin, reference compound]: the inhibition in vivo at 100 mg/kg in data set [1] (setting [7]) came out at 38%.

`CC(C)(C)c1cc(C=C(CCO)C(=O)O)cc(C(C)(C)C)c1O` [Compound I, β-Carboxy-β-(2-hydroxyethyl)-3,5-di-tert-butyl-4-hydroxystyrene]: the inhibition in vivo at 100 mg/kg in data set [1] (setting [8]) stood at 74.5%; in data set [4] (setting [11]), 53.1%; in data set [4] (setting [12]), 98.9%; in data set [4] (setting [13]), 70.3%. The figures for the inhibition in vivo at 50 mg/kg in data set [2] (setting [9]) and in data set [2] (setting [10]) were 44.6% and 41.6%, respectively. For the same compound, the 50% lethal dose (LD50) at 336 h in data set [3] is greater than 1000 mg/kg.

Take `COC(=O)C(=Cc1cc(C(C)(C)C)c(O)c(C(C)(C)C)c1)CCO` [Compound II, β-Methoxycarbonyl-β-(2-hydroxyethyl)-3,5-di-tert-butyl-4-hydroxystyrene]: the inhibition in vivo at 100 mg/kg in data set [1] (setting [8]) amounted to 79.8%; in data set [4] (setting [11]), 42.5%; in data set [4] (setting [12]), 64.5%; in data set [4] (setting [13]), 59.7%. Also, the results for the inhibition in vivo at 50 mg/kg in data set [2] (setting [9]) and in data set [2] (setting [10]) were 52.1% and 41.7%, respectively. In data set [3], this compound yielded an LD50 at 336 h greater than 1000 mg/kg.

Consider `CCC(=Cc1cc(C(C)(C)C)c(O)c(C(C)(C)C)c1)C(=O)O` [Compound III, β-Carboxy-β-ethyl-3,5-di-tert-butyl-4-hydroxystyrene], for which the inhibition in vivo at 100 mg/kg in data set [1] (setting [8]) turned out to be 28.2%; in data set [4] (setting [11]), 14.6%; in data set [4] (setting [12]), 31.8%; in data set [4] (setting [13]), 19.5%. In addition, the values for the inhibition in vivo at 50 mg/kg in data set [2] (setting [9]) and in data set [2] (setting [10]) were 12.1% and 18.3%, respectively. In data set [3], this compound displayed a median lethal dose (LD50) at 336 h greater than 1000 mg/kg.

Take `CCOC(=O)C(=Cc1cc(C(C)(C)C)c(O)c(C(C)(C)C)c1)C(C)=O` [Compound IV, β-Ethoxycarbonyl-β-acetyl-3,5-di-tert-butyl-4-hydroxystyrene]: the inhibition in vivo at 100 mg/kg turned out to be 56.9% in data set [1] (setting [8]), 23% in data set [4] (setting [11]), 40.9% in data set [4] (setting [12]) and 41.6% in data set [4] (setting [13]). Moreover, the inhibition in vivo at 50 mg/kg was determined as 30.3% in data set [2] (setting [9]) and 28.4% in data set [2] (setting [10]). For the same compound, the 50% lethal dose (LD50) at 336 h in data set [3] is greater than 1000 mg/kg.

As for `CC(=O)C(C)=Cc1cc(C(C)(C)C)c(O)c(C(C)(C)C)c1` [Compound VI, β-Acetyl-β-methyl-3,5-di-tert-butyl-4-hydroxystyrene], the inhibition in vivo at 100 mg/kg was determined as 47.8% in data set [1] (setting [8]), 38.1% in data set [4] (setting [11]), 45.5% in data set [4] (setting [12]) and 41.6% in data set [4] (setting [13]). In addition, the inhibition in vivo at 50 mg/kg amounted to 32.5% in data set [2] (setting [9]) and 20.7% in data set [2] (setting [10]). The compound also returned an LD50 at 336 h in data set [3] greater than 1000 mg/kg.

With `CC(C)(C)c1cc(C=CC(=O)c2ccccc2)cc(C(C)(C)C)c1O` [Compound VII, β-Benzoyl-3,5-di-tert-butyl-4-hydroxystyrene], the inhibition in vivo at 100 mg/kg in data set [1] (setting [8]) was found to be 33%; in data set [4] (setting [11]), 15.9%; in data set [4] (setting [12]) it was 27.7%; in data set [4] (setting [13]), 21.4%. For the same compound, the inhibition in vivo at 50 mg/kg in data set [2] (setting [9]) is 16.9%; in data set [2] (setting [10]), 19.7%. In data set [3], this compound gave an LD50 at 336 h greater than 1000 mg/kg.

Turning to `CC(C)(C)c1cc(C=CC(N)=O)cc(C(C)(C)C)c1O` [Compound VIII, β-Carbamoyl-3,5-di-tert-butyl-4-hydroxystyrene], the inhibition in vivo at 100 mg/kg in data set [1] (setting [8]) turned out to be 25.8%; in data set [4] (setting [11]), 19.9%; in data set [4] (setting [12]), 25.9%; in data set [4] (setting [13]) it was 16.9%. Further, the inhibition in vivo at 50 mg/kg in data set [2] (setting [9]) amounted to 17.6%; in data set [2] (setting [10]), 14.6%. Also, the LD50 at 336 h in data set [3] is greater than 1000 mg/kg.

Take `CC(C)(C)c1cc(C=C[N+](=O)[O-])cc(C(C)(C)C)c1O` [Compound X, β-Nitro-3,5-di-tert-butyl-4-hydroxystyrene]: the inhibition in vivo at 100 mg/kg worked out at 24.4% in data set [1] (setting [7]), 18.6% in data set [4] (setting [11]), 30.5% in data set [4] (setting [12]) and 23.4% in data set [4] (setting [13]). The inhibition in vivo at 50 mg/kg came to 11% in data set [2] (setting [9]) and 17.3% in data set [2] (setting [10]). This compound had an LD50 at 336 h in data set [3] greater than 1000 mg/kg.

With `CC(C)(C)c1cc(C=C(C#N)S(C)(=O)=O)cc(C(C)(C)C)c1O` [Compound XI, β-Methylsulfonyl-β-cyano-3,5-di-tert-butyl-4-hydroxystyrene], the inhibition in vivo at 50 mg/kg in data set [1] (mouse, p.o., 50 mg/kg, 1 hour before acetic acid i.p.) amounted to 31.6%; in data set [2] (setting [9]), 35.1%; in data set [2] (setting [10]), 18.3%; in data set [4] (setting [11]) it was 23.2%; in data set [4] (setting [12]), 31.2%; in data set [4] (setting [13]), 19.9%. The compound also returned a 50% lethal dose (LD50) at 336 h in data set [3] of 250 to 500 mg/kg.

Turning to `CC(C)Cc1ccc(C(C)C(=O)O)cc1` (stereo not drawn) [Ibuprofen, reference compound], in data set [5] (12.5 mg/kg/day), the “Inhibition, injected foot, Day 14” value is -2.6%; the “Inhibition, injected foot, Day 21” value is listed as -17.4%; the “Inhibition, uninjected foot, Day 14” value turned out to be 13.5%; the “Inhibition, uninjected foot, Day 21” value is recorded as -7.4%. Further, in data set [5] (50 mg/kg/day), the “Inhibition, injected foot, Day 14” value was -1.7%; the “Inhibition, injected foot, Day 21” value was 28.7%; the “Inhibition, uninjected foot, Day 14” value came to 32.4%; the “Inhibition, uninjected foot, Day 21” value came to 44.4%.

For `COc1ccc2c(c1)c(CC(=O)O)c(C)n2C(=O)c1ccc(Cl)cc1` [Indomethacin, reference compound], the inhibition in vivo at 5 mg/kg in data set [1] (setting [7]) turned out to be 62.7%; in data set [2] (3 h, read-out: Percent edema inhibition, 3 hours) it was 32.8%; in data set [2] (5 h, read-out: Percent edema inhibition, 5 hours), 39.2%; in data set [4] (1 h, read-out: Inhibition (fever), 1 hour), 35.4%; in data set [4] (3 h, read-out: Inhibition (fever), 3 hours), 56.4%; in data set [4] (5 h, read-out: Inhibition (fever), 5 hours), 66.2%. For the same compound, the “Inhibition (granuloma)” value in data set [6] (1.25 mg/kg/day) was 14.0%; in data set [6] (5 mg/kg/day), 25.5%.

Consider `CCCCC1C(=O)N(c2ccccc2)N(c2ccccc2)C1=O` [Phenylbutazone, reference compound], for which the inhibition in vivo at 100 mg/kg in data set [2] (setting [9]) was determined as 23.6%; in data set [2] (setting [10]), 28.9%. For the same compound, the entries for the “Inhibition (granuloma)” value in data set [6] (25 mg/kg/day) and in data set [6] (100 mg/kg/day) were 5.6% and 24.2%, respectively.
